US8815535B2, “Disk diffusion assay for oritavancin” (The Medicines Company, priority 2011, dated 2014)
≈ marks a conversion by molar mass, not a printed value. Like-named read-outs stand apart in the source and are kept apart here.

Assays:
[1] = system: MRSA NRS121-ORI^RS; test: Disk diffusion assay (zone of inhibition); format: cell-based; conditions: Staphylococcus aureus, read-out: Zone diameter (mm ± SD)
From the text: (§1) The study was designed to identify conditions that improve oritavancin diffusion in agar and consequently yield a zone diameter ≧15 mm for the CLSI quality control strain MSSA ATCC 25923. Excipients that increased the disk diffusion of oritavancin in agar relative to disks containing only oritavancin were identified and selected for further study. […] A prediffusion step at room temperature was introduced to maximize oritavancin diffusion prior to initiation of bacterial growth. In this step, the antimicrobial disks were placed on agar plates seeded with a bacterial isolate and incubated at room temperature for 3 hours. Plates were then incubated overnight at 37° C. Zone diameters around the disks in which bacterial growth was inhibited were measured with a ruler and reported in millimeters.
(§2) Ethanol-sterilized Whatman paper disks (6 mm diameter) were allowed to dry then impregnated with 20 microliters of oritavancin solution containing total amounts ranging from 90 to 360 micrograms. Disks were allowed to dry at room temperature for various times prior to use.
(§3) Bacterial suspensions were prepared and adjusted to an optical density of 0.1 at 600 nm. Standard cation-adjusted Mueller Hinton agar plates (90 mm diameter) were seeded with bacterial suspensions by initially swabbing the center of plate then moving outward towards the edge. The plate was swabbed a second time, perpendicular to the orientation of the first swab. To assess the impact of prediffusion on diameter of inhibition zones, two disks were immediately placed on one half of the plate and the plate was incubated for 3 hours at room temperature. After 3 hours, two additional disks were placed on the other half of the plate then the plate was incubated overnight at 37° C. Zone diameters were measured with a ruler and reported in millimeters.

[2] = system: MRSA NRS121; test: Disk diffusion assay (zone of inhibition); format: cell-based; conditions: Staphylococcus aureus, read-out: Zone diameter (mm ± SD), NRS121, 360 μg in 5% P80
From the text: as §1, §2, §3

[3] = system: MRSA NRS123-ORI^RS; test: Disk diffusion assay (zone of inhibition); format: cell-based; conditions: Staphylococcus aureus, read-out: Zone diameter (mm ± SD)
From the text: as §1, §2, §3

[4] = system: MRSA NRS123; test: Disk diffusion assay (zone of inhibition); format: cell-based; conditions: Staphylococcus aureus; for zone of inhibition at 90 µg/disc: 90 μg oritavancin; for zone of inhibition at 180 µg/disc: 180 μg oritavancin
From the text: as §1, §2, §3

[5] = system: MSSA T972018; test: Disk diffusion assay (zone of inhibition); format: cell-based; conditions: Staphylococcus aureus, read-out: Zone diameter (mm ± SD)
From the text: as §1, §2, §3

[6] = system: hVISA NRS36; test: Disk diffusion assay (zone of inhibition); format: cell-based, Staphylococcus aureus; conditions: 25 μg (1.25 mg/ml) in 4% P80/Span 80 (1:1), dried overnight
Protocol: Oritavancin powder was dissolved in freshly-prepared solutions of the indicated excipients at concentrations of 0.625, 1.25, 2.5, 5, and 10 mg/ml (adjusted for potency based on lot 875561L00 purity of 83.1%) by vortexing for a minimum of 5 minutes. Oritavancin solutions in the various excipients, while not visually clear, were free from any apparent particulates as assessed visually. Sterile Oxoid blank disks were impregnated with 20 μl of these oritavancin solutions, resulting in oritavancin disk loads ranging from 12.5 to 200 μg. Unless indicated otherwise, disks were allowed to dry overnight at room temperature prior to use.
Bacterial suspensions from isolated colonies on overnight cation-adjusted Mueller Hinton agar plates were prepared in sterile saline and adjusted to an optical density of 0.1 at 600 nm Standard cation-adjusted Mueller Hinton agar plates (90 mm diameter) were seeded with bacterial suspensions by initially swabbing the center of plate then moving outward. Swabbing was continued at a right angle and then at an oblique angle to the first and second swabs. Disks were placed upon the seeded plates with sterile forceps. Plates were then incubated overnight at 37° C. and inhibition zone diameters were measured with a ruler and reported in millimeters.

[7] = system: NRS123 and NRS2; test: Disk diffusion assay, difference in zone diameter between two isolates; format: cell-based, Staphylococcus aureus
From the text: as §1, §2, §3

[8] = system: S. aureus isolates; test: Broth microdilution (BMD) MIC, panel of isolates; format: cell-based; conditions: Staphylococcus aureus, wild-type susceptibility to oritavancin
From the text: To date, only the broth microdilution (BMD) minimal inhibitory concentration (MIC) test is a reference method accepted by the Clinical Laboratory Standards Institute (CLSI) for use in determining the susceptibility of a bacterial isolate to oritavancin (Methods for Dilution Antimicrobial Susceptibility Tests for Bacteria That Grow Aerobically; Approved Standard, CLSI document M7-A8, 8th ed. Clinical and Laboratory Standards Institute, Wayne, Pa. 2009; Performance Standards for Antimicrobial Susceptibility Testing; Eighteenth Informational Supplement, CLSI document M100-S18, 7th ed. Clinical and Laboratory Standards Institute, Wayne, Pa. 2008).

[9] = 360 μg in 5% P80, Average, no prediffusion
[10] = 360 μg in 5% P80, Average, prediffusion
[11] = 360 μg in 5% P80, Experiment 2, disks stored 8 days, 3 h prediffusion at room temperature
[12] = 192 h, 360 μg in 5% P80, Experiment 2, disks stored 8 days, no prediffusion
[13] = 192 h, 2.5% P80, disks stored 8 days, prediffusion, read-out: Average zone diameter
[14] = 336 h, 5% P80, disks stored 14 days, prediffusion, read-out: Average zone diameter
[15] = 336 h, 10% P80, disks stored 14 days, prediffusion, read-out: Average zone diameter

**Q.** Which zone of inhibition at 360 µg/disc [1, 9] does the source give for `CN[C@H](CC(C)C)C(=O)N[C@H]1C(=O)N[C@@H](CC(N)=O)C(=O)N[C@H]2C(=O)N[C@H]3C(=O)N[C@H](C(=O)N[C@H](C(=O)O)c4cc(O)cc(O)c4-c4cc3ccc4O)[C@H](O[C@H]3C[C@](C)(N)[C@@H](O)[C@H](C)O3)c3ccc(c(Cl)c3)Oc3cc2cc(c3O[C@@H]2O[C@H](CO)[C@@H](O)[C@H](O)[C@H]2O[C@H]2C[C@](C)(NCc3ccc(-c4ccc(Cl)cc4)cc3)[C@@H](O)[C@H](C)O2)Oc2ccc(cc2Cl)[C@H]1O` [oritavancin, N-(4-(4-chlorophenyl)benzyl)A82846B] here?
**A.** 13 mm

**Q.** And the zone of inhibition at 360 µg/disc [1, 10]?
**A.** 14 mm

**Q.** What about the zone of inhibition at 360 µg/disc [1, 11] of the same molecule?
**A.** 14 mm

**Q.** And the zone of inhibition at 360 µg/disc [1, 12]?
**A.** 13 mm

**Q.** And the zone of inhibition at 360 µg/disc ([2]; 192 h, Experiment 2, disks stored 8 days, no prediffusion)?
**A.** 15 mm

**Q.** What about the zone of inhibition at 360 µg/disc ([2]; Average, no prediffusion) of the same molecule?
**A.** 15 mm

**Q.** What about the zone of inhibition at 360 µg/disc ([2]; Average, prediffusion) of the same molecule?
**A.** 17.3 ± 0.4 mm

**Q.** And the zone of inhibition at 360 µg/disc ([2]; Experiment 2, disks stored 8 days, 3 h prediffusion at room temperature)?
**A.** 17.3 ± 0.4 mm

**Q.** And the zone of inhibition at 360 µg/disc [3, 9]?
**A.** 14 mm

**Q.** What about the zone of inhibition at 360 µg/disc [3, 10] of the same molecule?
**A.** 15 mm

**Q.** What about the zone of inhibition at 360 µg/disc [3, 11] of the same molecule?
**A.** 15 mm

**Q.** And the zone of inhibition at 360 µg/disc [3, 12]?
**A.** 14 mm

**Q.** What about the zone of inhibition at 360 µg/disc ([4]; 360 μg in 5% P80, Average of experiments, no prediffusion, read-out: Zone diameter (mm ± SD)) of the same molecule?
**A.** 16 ± 0.4 mm

**Q.** What about the zone of inhibition at 360 µg/disc ([4]; 360 μg in 5% P80, Average of experiments, prediffusion, read-out: Zone diameter (mm ± SD)) of the same molecule?
**A.** 18.8 ± 0.9 mm

**Q.** What about the zone of inhibition at 360 µg/disc ([4]; 360 μg in 5% P80, Experiment 1, disks stored 14 days, 3 h prediffusion at room temperature, read-out: Zone diameter (mm ± SD)) of the same molecule?
**A.** 19.5 mm

**Q.** And the zone of inhibition at 360 µg/disc ([4]; 360 μg in 5% P80, Experiment 2, disks stored 8 days, 3 h prediffusion at room temperature, read-out: Zone diameter (mm ± SD))?
**A.** 18 mm

**Q.** And the zone of inhibition at 90 µg/disc [4, 13]?
**A.** 15.8 mm

**Q.** What about the zone of inhibition at 180 µg/disc [4, 13] of the same molecule?
**A.** 16.5 mm

**Q.** And the zone of inhibition at 360 µg/disc ([4]; 192 h, 360 μg in 5% P80, Experiment 2, disks stored 8 days, no prediffusion, read-out: Zone diameter (mm ± SD))?
**A.** 15.8 ± 0.4 mm

**Q.** What about the zone of inhibition at 360 µg/disc ([4]; 192 h, 360 μg oritavancin, 2.5% P80, disks stored 8 days, prediffusion, read-out: Average zone diameter) of the same molecule?
**A.** 16.8 mm

**Q.** And the zone of inhibition at 90 µg/disc [4, 14]?
**A.** 16 mm

**Q.** What about the zone of inhibition at 90 µg/disc [4, 15] of the same molecule?
**A.** 15.5 mm

**Q.** What about the zone of inhibition at 180 µg/disc [4, 14] of the same molecule?
**A.** 17.3 mm

**Q.** And the zone of inhibition at 180 µg/disc [4, 15]?
**A.** 17.3 mm

**Q.** What about the zone of inhibition at 360 µg/disc ([4]; 336 h, 360 μg in 5% P80, Experiment 1, disks stored 14 days, no prediffusion, read-out: Zone diameter (mm ± SD)) of the same molecule?
**A.** 16.3 ± 0.4 mm

**Q.** And the zone of inhibition at 360 µg/disc ([4]; 336 h, 360 μg oritavancin, 5% P80, disks stored 14 days, prediffusion, read-out: Average zone diameter)?
**A.** 18.5 mm

**Q.** What about the zone of inhibition at 360 µg/disc ([4]; 336 h, 360 μg oritavancin, 10% P80, disks stored 14 days, prediffusion, read-out: Average zone diameter) of the same molecule?
**A.** 17.5 mm

**Q.** And the zone of inhibition at 360 µg/disc ([5]; 360 μg in 5% P80, Average of experiments, no prediffusion)?
**A.** 15 ± 0.6 mm

**Q.** And the zone of inhibition at 360 µg/disc ([5]; 360 μg in 5% P80, Average of experiments, prediffusion)?
**A.** 17.4 ± 0.3 mm

**Q.** And the zone of inhibition at 360 µg/disc ([5]; 360 μg in 5% P80, Experiment 1, disks stored 14 days, 3 h prediffusion at room temperature)?
**A.** 17.5 mm

**Q.** And the zone of inhibition at 360 µg/disc [5, 11]?
**A.** 17.3 ± 0.4 mm

**Q.** What about the zone of inhibition at 360 µg/disc [5, 12] of the same molecule?
**A.** 14.5 mm

**Q.** What about the zone of inhibition at 360 µg/disc ([5]; 336 h, 360 μg in 5% P80, Experiment 1, disks stored 14 days, no prediffusion) of the same molecule?
**A.** 15.5 mm

**Q.** And the Inhibition zone diameter ([6]; NRS36)?
**A.** 12 mm

**Q.** And the zone of inhibition at 25 µg/disc ([6]; Staphylococcus aureus, NRS36, read-out: Inhibition zone diameter, NRS36)?
**A.** 11 mm

**Q.** And the “Difference in diameter (NRS2 subtracted from NRS123)” value (“Difference in diameter” for short) ([7]; 90 μg oritavancin, 2.5% P80)?
**A.** 1.8 mm

**Q.** And the “Difference in diameter” value ([7]; 90 μg oritavancin, 5% P80)?
**A.** 1 mm

**Q.** What about the “Difference in diameter” value ([7]; 90 μg oritavancin, 10% P80) of the same molecule?
**A.** −0.3 mm

**Q.** What about the “Difference in diameter” value ([7]; 180 μg oritavancin, 2.5% P80) of the same molecule?
**A.** 1.7 mm

**Q.** What about the “Difference in diameter” value ([7]; 180 μg oritavancin, 5% P80) of the same molecule?
**A.** 1.3 mm

**Q.** And the “Difference in diameter” value ([7]; 180 μg oritavancin, 10% P80)?
**A.** 1.3 mm

**Q.** And the “Difference in diameter” value ([7]; 360 μg oritavancin, 2.5% P80)?
**A.** 1.8 mm

**Q.** And the “Difference in diameter” value ([7]; 360 μg oritavancin, 5% P80)?
**A.** 0.5 mm

**Q.** And the “Difference in diameter” value ([7]; 360 μg oritavancin, 10% P80)?
**A.** 1 mm

**Q.** And the MIC90 [8]?
**A.** 0.12 µg/mL (≈ 0.0669 µM)
